In ChEMBL document CHEMBL1201862, “PubChem BioAssay data set” (2004):
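Protocol summary: plate cells (96-well), add compound at 5 concentrations, incubate 48 h, interpolate endpoints linearly. The concentration for 50% growth inhibition is given as GI50.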 Active and inactive are the calls of the source. No stated cut-off is given here; in the data, active = GI50 up to about 1.1 µM and inactive = higher.

Legend:
Assay in all cases: NCI anticancer screen, dose series, 48 h
[1] = tested on: BT-549
[2] = tested on: M19-MEL
[3] = tested on: DLD-1
[4] = tested on: KM-20L2
[5] = tested on: RXF 631
[6] = tested on: HOP-18
[7] = tested on: LXFL 529
[8] = tested on: SNB-78
[9] = tested on: XF498

Structure (SMILES)	GI50 [1]	GI50 [2]	GI50 [4]	GI50 [7]	further results
C=CCCCC1(C)CCCCNC1=O (configuration not stated)	> 10 µM (inactive)				
Oc1ccccc1CNCc1nc2ccccc2[nH]1	75.7 µM (inactive)				
NC(=S)NN=C1Cc2ccccc2C1	> 100 µM (inactive)				
CCOC(=O)N1C/C(=C\c2ccc(N(C)C)cc2)C(=O)/C(=C/c2ccc(N(C)C)cc2)C1		> 100 µM (inactive)	> 100 µM (inactive)	> 100 µM (inactive)	GI50 [3]: > 100 µM (inactive); GI50 [5]: > 100 µM (inactive); GI50 [6]: > 100 µM (inactive); GI50 [8]: > 100 µM (inactive)
CCC1(O)C(=O)OCc2c1cc1n(c2=O)Cc2cc3cc(OC)c(OC)cc3nc2-1 (configuration not stated)			> 100 µM (inactive)	> 100 µM (inactive)	GI50 [9]: 34.3 µM (inactive); GI50 [6]: 56.8 µM (inactive)
CN(C)c1ccc(/C=C(\NC(=O)c2ccccc2)c2nc3ccc4c(c3[nH]2)C(=O)c2ccccc2C4=O)cc1		> 100 µM (inactive)	> 100 µM (inactive)	39.6 µM (inactive)	GI50 [3]: 9.48 µM (inactive); GI50 [5]: 34.7 µM (inactive); GI50 [8]: 75.7 µM (inactive)
COc1ccc2nccc(SCC(=O)O)c2c1	> 100 µM (inactive)				
N#CC(C(=O)c1ccccc1F)c1nc2cc(C(F)(F)F)ccc2s1 (configuration not stated)	23 µM (inactive)				
Cc1ccc(S(=O)(=O)N/N=C\c2c3ccccc3[n+]([O-])c3ccccc23)cc1		7.67 µM (inactive)	2.96 µM (inactive)	0.935 µM (active)	GI50 [3]: 2.65 µM (inactive); GI50 [5]: 3.01 µM (inactive); GI50 [6]: 6.76 µM (inactive); GI50 [8]: 6.71 µM (inactive)
CCOC(=O)C(C)(C)Oc1ccc2c(=O)cc(-c3ccc(Cl)cc3)oc2c1		> 100 µM (inactive)	> 100 µM (inactive)	> 100 µM (inactive)	GI50 [3]: > 100 µM (inactive); GI50 [9]: > 100 µM (inactive); GI50 [5]: > 100 µM (inactive)
COc1ccc(NC(=O)C(C)Oc2ccc(OCC3CCCCC3)cc2)cc1 (configuration not stated)		> 100 µM (inactive)		51.4 µM (inactive)	GI50 [3]: 64 µM (inactive); GI50 [9]: 85.7 µM (inactive); GI50 [8]: 50.9 µM (inactive)
CCOC(=O)/C(=C\NCc1ccc2c(c1)OCO2)c1nc2ccccc2[nH]1	83.4 µM (inactive)				
CCn1c(-c2ccc(/N=N/Nc3ccc(-c4n[nH]c(=S)n4CC)cc3)cc2)n[nH]c1=S	1.66 µM (inactive)				
NC(=S)N/N=C(/CC(=O)c1ccccc1)C(=O)Nc1ccc(Cl)c(Cl)c1		> 100 µM (inactive)	> 100 µM (inactive)	83.4 µM (inactive)	GI50 [3]: 83.6 µM (inactive); GI50 [6]: > 100 µM (inactive); GI50 [8]: > 100 µM (inactive)
CC1(C)C2CCC(=O)C1C(OCc1ccccc1)C2 (configuration not stated)	94 µM (inactive)				
COc1cc(/C=C2/C(=O)N(C(=O)c3ccccc3O)N=C2C)cc(OC)c1OC	0.741 µM (active)	0.695 µM (active)	45.7 µM (inactive)	0.555 µM (active)	GI50 [3]: 0.484 µM (active); GI50 [9]: 1.9 µM (inactive); GI50 [8]: 0.277 µM (active)
COC1=N[C@H](C(C)C)C(OC)=N[C@H]1Cc1ccc(C[C@@H]2N=C(OC)[C@@H](C(C)C)N=C2OC)s1	> 100 µM (inactive)				
O=C1c2scc(-c3ccc(F)cc3)c2-n2cccc21	13.6 µM (inactive)				
O=C1NC(N2CCCC(CO)C2)=N/C1=C\c1ccccc1 (configuration not stated)	> 100 µM (inactive)				
Cc1cccc2c(N)c3cccc(C(=O)NCC[N+](C)(C)Cc4ccc([N+](=O)[O-])s4)c3nc12	33.5 µM (inactive)				
CC(C)(C)OC(=O)N[C@@H](Cc1ccccc1)C(=O)N1CC[C@@H](C(=O)N2[C@H]3CC4CC[C@@]3(CS2(=O)=O)C4(C)C)N1	63.5 µM (inactive)				

Structure (SMILES)	GI50 [1]	GI50 [2]	GI50 [4]	GI50 [7]	further results
COc1ccc(/C=N/n2c(Cc3ccccc3)n[nH]c2=O)c(OC)c1	8.2 µM (inactive)				
COC1OC(=O)C(OC)C(OC)C1OC (configuration not stated)	40.5 µM (inactive)				
O=C(CO)CC(=O)C(=O)Nc1nc([N+](=O)[O-])cs1		> 100 µM (inactive)	> 100 µM (inactive)	> 100 µM (inactive)	GI50 [3]: > 100 µM (inactive); GI50 [5]: > 100 µM (inactive); GI50 [6]: > 100 µM (inactive); GI50 [8]: > 100 µM (inactive)
CC1=C(C)SC(=C2Sc3c(n(C)c(=O)n(C)c3=O)S2)S1	57.1 µM (inactive)				
O=S(=O)(c1ccccc1)C(CN1CCCCC1)S(=O)(=O)c1ccccc1		> 100 µM (inactive)	> 100 µM (inactive)	> 100 µM (inactive)	GI50 [3]: > 100 µM (inactive); GI50 [9]: > 100 µM (inactive)
COc1ccc(/C=N/CCC/N=C/c2ccc(OC)cc2O)c(O)c1	48.9 µM (inactive)				
c1ccc(CN(Cc2ccccn2)Cn2cccn2)nc1		35 µM (inactive)	51.5 µM (inactive)		GI50 [3]: 30.2 µM (inactive); GI50 [9]: 60 µM (inactive); GI50 [5]: 38 µM (inactive); GI50 [8]: > 100 µM (inactive)
O=C(/C=C/c1ccccc1Cl)NC1C=Nc2ccc([N+](=O)[O-])cc2NC1 (configuration not stated)		53.2 µM (inactive)	> 100 µM (inactive)	43.2 µM (inactive)	GI50 [3]: 48.6 µM (inactive); GI50 [9]: > 100 µM (inactive); GI50 [6]: > 100 µM (inactive); GI50 [8]: > 100 µM (inactive)
O=C1/C(=C/c2ccccc2S)N=C(c2ccccc2)N1c1nc2ccc(Sc3ccccc3)cc2[nH]1	22.1 µM (inactive)				
O=C(Nc1ccc(N2C(=O)CSC2c2ccccc2O)cc1)c1ccc(N2C(=O)CSC2c2ccccc2O)cc1 (configuration not stated)	87.1 µM (inactive)				
N=C(NCc1ccccc1)N/N=C\c1ccnc2ccccc12	4.56 µM (inactive)				
CC1(C)CC(=O)C(CC(C(=O)C(=O)Nc2cc(C(F)(F)F)ccc2Cl)C(=O)c2ccco2)C(=O)C1 (configuration not stated)	> 100 µM (inactive)				
CC(=O)OC(=C(C#N)C#N)c1nccnc1C(C)=O	13.3 µM (inactive)				
CC(C)(C)OC(=O)NCCCCC1NC(=O)[C@@H]2Cc3c([nH]c4ccccc34)C(c3ccccc3)N2C1=O (some centres not stated)	21.9 µM (inactive)				
COC([C@@H](OC(=O)c1ccccc1)[C@H](OC(=O)c1ccccc1)C(O)COC(=O)c1ccccc1)n1cc(C)c(=O)[nH]c1=O (some centres not stated)	21.3 µM (inactive)				
Oc1nc(-c2cccc(F)c2)nc2ccccc12	> 46.9 µM (inactive)				
CC1=C(c2cc(C(=O)Nc3cccc(C(F)(F)F)c3)ncn2)Sc2ccccc2N1		> 100 µM (inactive)	> 100 µM (inactive)	> 100 µM (inactive)	GI50 [3]: > 100 µM (inactive); GI50 [9]: > 100 µM (inactive); GI50 [6]: > 100 µM (inactive)
O=Cc1ccc(-c2cc(C=O)c(-c3cccs3)[nH]2)s1	28.2 µM (inactive)				
c1ccc(C2=NOC3COc4ccccc4OCC23)cc1 (configuration not stated)			> 100 µM (inactive)	> 100 µM (inactive)	GI50 [8]: > 100 µM (inactive)
Oc1ccc(-c2nc(-c3cccnc3)c(-c3ccc(Cl)cc3)[nH]2)cc1O	10 µM (inactive)				
Cc1ccc(NC(=O)C(=O)C(C(=O)c2ccc3ccccc3c2)C2OC(=O)c3ccccc32)cc1C (configuration not stated)		6.34 µM (inactive)	35.2 µM (inactive)	8.36 µM (inactive)	GI50 [3]: 17.7 µM (inactive); GI50 [9]: 3.29 µM (inactive); GI50 [6]: 0.743 µM (active)

Structure (SMILES)	GI50 [1]	GI50 [2]	GI50 [4]	GI50 [7]	further results
Cn1c(-c2ccccc2)c/c(=N\NS(C)(=O)=O)c2cc(S(=O)(=O)O)ccc21		> 100 µM (inactive)	> 100 µM (inactive)	> 100 µM (inactive)	GI50 [3]: > 100 µM (inactive); GI50 [9]: > 100 µM (inactive); GI50 [6]: > 100 µM (inactive); GI50 [8]: > 100 µM (inactive)
Cc1cc(C)c(C#N)c(SC(=S)NC(=O)c2ccccc2)n1	> 100 µM (inactive)				
CC1(C)CC(C)(C)CC(O)(C2(O)CC(C)(C)CC(C)(C)C2)C1		> 100 µM (inactive)	> 100 µM (inactive)	> 100 µM (inactive)	GI50 [9]: > 100 µM (inactive)
Cc1nc2c(n1Cc1ccc(F)cc1)C(=O)c1ccccc1C2=O		3.62 µM (inactive)	38.5 µM (inactive)	13.5 µM (inactive)	GI50 [9]: 29.9 µM (inactive); GI50 [8]: > 100 µM (inactive)
COC(=O)C1=C(OC(=O)c2ccccc2)C(C(=O)OC)[C@@]2(O)[C@@H](C(=O)OC)[C@H](C)C[C@@H]1[C@@H]2C(=O)OC (some centres not stated)	23.7 µM (inactive)				
CCN(CC)C(=S)SNCc1ccc(S(N)(=O)=O)cc1	18.5 µM (inactive)				
O=c1oc2ncccc2n1Cc1ccc([N+](=O)[O-])cc1	38.1 µM (inactive)				
O=C(/C=C/c1ccc2ccccc2c1)NCc1ccc(C(=O)NCc2ccccc2)cc1	32.9 µM (inactive)				
CN(C)C1(N(C)C)Oc2c(c(=O)n(C)c(=O)n2C)C(c2ccc(C(F)(F)F)cc2)C1(F)F (configuration not stated)	> 100 µM (inactive)				
NC(=S)NS(=O)(=O)c1ccc(F)cc1	> 100 µM (inactive)				
CC(=O)[O-].Cc1ncc(CO)c(/C=N/NC(N)=S)c1[O-].[Zn+2]		> 100 µM (inactive)		> 100 µM (inactive)	GI50 [3]: > 100 µM (inactive); GI50 [5]: > 100 µM (inactive); GI50 [6]: > 100 µM (inactive); GI50 [8]: > 100 µM (inactive)
CCc1oc2ccc(OC)c3c2c1C=CC=C3		> 100 µM (inactive)		> 100 µM (inactive)	GI50 [3]: > 100 µM (inactive); GI50 [8]: > 100 µM (inactive)
CSc1nc(-c2ccccc2)[nH]c(=O)n1	> 100 µM (inactive)				
O=C(O)Cc1ccc(Oc2nc3ccccc3nc2C(=O)O)cc1	> 100 µM (inactive)				
CC(=O)c1cc(C)n2c1CS[C@@H]2c1ccccc1	37.2 µM (inactive)				
CC1CC[C@@]2(OC1)O[C@H]1[C@H](O)[C@H]3[C@@H]4CC[C@H]5C[C@@H](OC6OC(CO)C(OC7OC(CO)C(O)C(OC8OCC(O)C(O)C8O)C7OC7OC(CO)C(O)C(O)C7OC7OC(CO)C(O)C(O)C7O)C(O)C6O)[C@H](O)C[C@]5(C)[C@H]4CC[C@]3(C)[C@H]1[C@@H]2C (some centres not stated)	> 10 µM (inactive)				
CCCCCCCOc1ccc(/C=C\c2cc[n+](CCCCCCCC[n+]3ccc(/C=C\c4ccc(OCCCCCCC)cc4)cc3)cc2)cc1		21.9 µM (inactive)	29.6 µM (inactive)	13.3 µM (inactive)	GI50 [3]: 21.8 µM (inactive); GI50 [6]: 15.1 µM (inactive); GI50 [8]: > 100 µM (inactive)
CCSC12OC3(CCCCCN3C1=O)C1C(=O)N(c3ccccc3)C(=O)C12 (configuration not stated)	> 100 µM (inactive)				
Cc1ccc2c(c1)NC(c1ccc(C(=O)O)cc1)c1cccn1-2 (configuration not stated)	61.2 µM (inactive)				
O=C(NCCNCCO)N/N=C/c1ccc([N+](=O)[O-])cc1	> 100 µM (inactive)				
Cc1cccc2c1C/C(=C1\CCc3c(C)cccc31)C2=O		> 100 µM (inactive)	> 100 µM (inactive)	> 100 µM (inactive)	GI50 [3]: > 100 µM (inactive); GI50 [5]: > 100 µM (inactive); GI50 [6]: 38.3 µM (inactive)
